# Measured values published in paper PMC11106739, “Discovery and Derivatization of Tridecaptin Antibiotics with Altered Host Specificity and Enhanced Bioactivity” (ACS Chemical Biology, 2024).
# Where a SMILES comes first, the peptide text is derived from it. [ ]: non-standard residue; d: D form. The star is where a group is joined. d(aIle) = CC[C@H](C)[C@@H](N)C(=O)O; dDab = NCC[C@@H](N)C(=O)O; Octanoyl = CCCCCCCC(=O)*; Dab = NCC[C@H](N)C(=O)O
# Assays:
# S. aureus 1126387 = format: cell-based, Staphylococcus aureus; conditions: 1126387, 20 h
# Procedure, shortened: (§1)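 Overnight agar cultures grown at 35 °C were suspended to 0.5 McFarland, then diluted 200-fold into cation-adjusted Mueller Hinton broth. This inoculum was added to compound dilutions (final 0.06–64 μg/mL), incubated 20 h at 35 °C, and the MIC judged visually.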
# S. aureus ATCC 29213 [1] = format: cell-based, Staphylococcus aureus; conditions: ATCC 29213, 20 h
# Procedure, shortened: as §1
# S. aureus UAMS-1625 = format: cell-based, Staphylococcus aureus; conditions: S. aureus UAMS-1625 (BV18); CLSI broth dilution, cation-adjusted Mueller Hinton broth, 20 h, 35 °C, read visually
# Procedure, shortened: as §1
# ATCC 25922 = format: cell-based, Enterococcus faecalis; conditions: ATCC 25922, 20 h
# Procedure, shortened: as §1
# E. faecalis ATCC 29212 = format: cell-based, Enterococcus faecalis; conditions: ATCC 29212, 20 h
# Procedure, shortened: as §1
# E. faecium ATCC 51559 = format: cell-based, Enterococcus faecium; conditions: ATCC 51559, 20 h
# Procedure, shortened: as §1
# E. faecium IHMA 890472 = format: cell-based, Enterococcus faecium; conditions: IHMA 890472, 20 h
# Procedure, shortened: as §1
# A. baumannii ATCC 17978 = format: cell-based, Acinetobacter baumannii; conditions: ATCC 17978, 20 h
# Procedure, shortened: as §1
# A. baumannii HUMC1 = format: cell-based, Acinetobacter baumannii; conditions: HUMC1, 20 h
# Procedure, shortened: as §1
# A. baumannii IHMA 777621 = format: cell-based, Acinetobacter baumannii; conditions: IHMA 777621, 20 h
# Procedure, shortened: as §1
# E. coli 1214245 = format: cell-based, Escherichia coli; conditions: 1214245, 20 h
# Procedure, shortened: as §1
# E. coli 1220120 = format: cell-based, Escherichia coli; conditions: 1220120, 20 h
# Procedure, shortened: as §1
# E. coli ATCC 25922 [2] = format: cell-based, Escherichia coli; conditions: ATCC 25922, 20 h
# Procedure, shortened: as §1
# K. pneumoniae 1227947 = format: cell-based, Klebsiella pneumoniae; conditions: 1227947, 20 h
# Procedure, shortened: as §1
# K. pneumoniae 1228586 = format: cell-based, Klebsiella pneumoniae; conditions: 1228586, 20 h
# Procedure, shortened: as §1
# K. pneumoniae ATCC 13883 = format: cell-based, Klebsiella pneumoniae; conditions: ATCC 13883, 20 h
# Procedure, shortened: as §1
# P. aeruginosa 1218019 = format: cell-based, Pseudomonas aeruginosa; conditions: 1218019, 20 h
# Procedure, shortened: as §1
# P. aeruginosa 1226072 = format: cell-based, Pseudomonas aeruginosa; conditions: 1226072, 20 h
# Procedure, shortened: as §1
# P. aeruginosa PAO1 = format: cell-based, Pseudomonas aeruginosa; conditions: PAO1, 20 h
# Procedure, shortened: as §1
# S. aureus USA300 (MRSA) = format: cell-based, Staphylococcus aureus; conditions: USA300, 18 h
# [3] = test system: Gram-positive lipid II / S. aureus USA300 (MRSA); assay: Lipid II antagonization assay; format: cell-based, Staphylococcus aureus; conditions: compound at 8x MIC, 5-fold molar excess of Gram-positive lipid II, MHB with 0.002% polysorbate-80, 37 °C, 18 h, resazurin, triplicates
# Method: Laboratory Institute (CLSI) guidelines. Gram-positive lipid II, containing lysine at position 3 of the pentapeptide, was prepared by total chemical synthesis.1,2 Lipid II in 1 : 1 chloroform : methanol (v/v) was added to a polypropylene 96-well plate (5-fold molar excess compared to test antibiotics) and the organic solvent was allowed to evaporate. Oct-TriA5 and vancomycin in MHB (50 µL, 16xMIC) were added to the wells with the 5-fold molar excess of pure Gram-positive lipid II in triplicates and to the control wells without lipid II. Single colony of S. aureus USA300 (MRSA) from a fresh blood agar plate was suspended in TSB and grown to an OD600 of 0.5. The bacterial culture then was diluted in MHB with 0.002% polysorbate-80 to reach 10^6 CFU/mL and 50 µL were mixed with test compounds to achieve the final concentration of 8xMIC for all tested compounds. The plate was incubated at 37°C for 18 h with constant shaking (600 rpm) and subsequently inspected for visible bacterial growth. To visualize the viability of the indicator strain, resazurin sodium salt solution (Merck, Dorset, UK) was added to the cultures to achieve the final concentration of 0.0015% (w/v) and incubated at RT for 1 h.
# Figure S4. HPLC trace showing the reinjection of purified Oct-TriD (3). The peptide eluted as a single peak at 17.263 min using the HPLC method A.
# Figure S5. […]
# S. aureus ATCC 29213 [4] = assay: LIVE/DEAD staining (SYTO 9 / propidium iodide); format: cell-based, Staphylococcus aureus; conditions: S. aureus ATCC 29213, 1 × MIC, 15 min, microscopy
# Method: (§2) This assay was performed according to a previously described procedure.[55],[56] Briefly, overnight cultures of E. coli ATCC 25922 and S. aureus ATCC 29213 were diluted to an OD600 of 0.2 in MHB and mixed with 1 × MIC of Oct-TriA1, Oct-TriA5, and Oct-TriD. Nisin and polymyxin B were used as positive controls at a concentration of 2-fold MIC. At the same time, green fluorescent nucleic acid stain SYTO 9 (excitation, 450–490 nm; emission, 500–550 nm) and red fluorescent nucleic acid stain propidium iodide (excitation, 574–599 nm; emission, 612–682 nm) (LIVE/DEAD Baclight Bacterial Viability Kit, Invitrogen) were added to the above cell suspensions. After mixing and incubating for 15 min in the dark at RT, cells were briefly sedimented via centrifugation and resuspended in fresh MHB. Then, the cell suspensions were loaded on 1.5% agarose pads and analyzed by a Zeiss Imager M2 microscope. Confocal images were obtained at 4 random locations for each sample and visualized using FIJI version 1.51H.[57]
# [5] = test system: Gram-negative ESKAPE pathogens; format: cell-based; conditions: 20 h
# Method: All minimum inhibitory concentrations (MICs) were determined according to the Clinical and Standards Laboratory Institute (CLSI) guidelines. In brief, agar plates were inoculated from glycerol stocks and incubated overnight at 35 °C. Peptide DMSO stocks were dispensed into 96-well round-bottom plates using a TECAN D300e dispenser. Colistin sulfate (Sigma-Aldrich) was dissolved in water and serially diluted in a cation-adjusted Mueller Hinton broth (10 μL per well). Final concentrations of the test compounds were 0.06 to 64 μg/mL. Inocula were prepared by direct colony suspension in NaCl at 0.5 MacFarland, which was further diluted 200-fold in cation-adjusted Mueller Hinton broth for a target inoculum of 2 × 10^5 colony forming units (CFUs)/mL. 100 μL portion of the prepared inoculum was added to each well of the prepared plates containing the test compounds. Plates were sealed with parafilm and incubated for 20 h at 35 °C. Images of all plates were recorded, and MIC was assessed visually.
# E. coli ATCC 25922 [6] = assay: LIVE/DEAD staining (SYTO 9 / propidium iodide); format: cell-based, Escherichia coli; conditions: E. coli ATCC 25922, tridecaptins at 1 × MIC, polymyxin 4 μg/mL (2 × MIC), 15 min, microscopy
# Method: as §2
molecule,measurement,setting,value
CCCCCCCC(=O)N[C@@H](C(=O)N[C@H](CCN)C(=O)NCC(=O)N[C@H](CO)C(=O)N[C@H](Cc1c[nH]c2ccccc12)C(=O)N[C@@H](CO)C(=O)N[C@@H](CCN)C(=O)N[C@H](CCN)C(=O)N[C@@H](Cc1c[nH]c2ccccc12)C(=O)N[C@@H](CCC(=O)O)C(=O)N[C@H](C(=O)N[C@@H](C(=O)N[C@@H](C)C(=O)O)[C@@H](C)CC)C(C)C)C(C)C [Oct-TriA5] (Octanoyl-[dV][dDab]G[dS][dW]S[Dab][dDab]WEV[d(aIle)]A-OH),MIC,S. aureus 1126387,8 µg/mL
same,MIC,S. aureus ATCC 29213 [1],8 µg/mL
same,MIC,S. aureus UAMS-1625,8 µg/mL
same,MIC,ATCC 25922,8 µg/mL
same,MIC,E. faecalis ATCC 29212,8 µg/mL
same,MIC,E. faecium ATCC 51559,8 µg/mL
same,MIC,E. faecium IHMA 890472,8 µg/mL
same,MIC,A. baumannii ATCC 17978,4 µg/mL
same,MIC,A. baumannii HUMC1,8 µg/mL
same,MIC,A. baumannii IHMA 777621,4 µg/mL
same,MIC,E. coli 1214245,4 µg/mL
same,MIC,E. coli 1220120,4 µg/mL
same,MIC,E. coli ATCC 25922 [2],2 µg/mL
same,MIC,K. pneumoniae 1227947,4 µg/mL
same,MIC,K. pneumoniae 1228586,4 µg/mL
same,MIC,K. pneumoniae ATCC 13883,4 µg/mL
same,MIC,P. aeruginosa 1218019,4 µg/mL
same,MIC,P. aeruginosa 1226072,8 µg/mL
same,MIC,P. aeruginosa PAO1,16 µg/mL
same,MIC,S. aureus USA300 (MRSA),8 µg/mL
same,growth of S. aureus USA300 (MRSA) after addition of lipid II,[3],not inhibited
same,"LIVE/DEAD staining, membrane integrity of S. aureus cells",S. aureus ATCC 29213 [4],had lysed
same,"MICs, range over Gram-negative pathogens",[5],2 to 16 µg/mL
polymyxin B,"LIVE/DEAD staining, membrane integrity of E. coli cells",E. coli ATCC 25922 [6],death of half of the E. coli cells
